Results reported in patent EP3041353B1, “COMPOSITIONS COMPRISING BACTERIOSTATIC AGENTS AND BRILLIANT BLUE G” (priority 2013, dated 2015).

Tests used:
[1] = test system: Bacillus sp.; assay: Bacteriostatic effect of BAK with BBG/BBR: turbidity after 24 h incubation; assay type: cell-based; parameters: key to Bakterienwachstum nach 24 h Inkubation: +: Bakterienwachstum nach 24 h Inkubation; -: kein Bakterienwachstum nach 24 h Inkubation
Method: (§1) Zur Untersuchung des Einflusses von BBG auf die bakteriostatische Wirkung wurden Bakterien 24 h mit erfindungsgemäßen Zusammensetzungen, Benzalkoniumchlorid (BAK) und Octenidin (Oct) als Bakteriostatikum enthielten, inkubiert. Wenn sich die Inkubationsmischung trübte, wurde das als Bakterienwachstum interpretiert. Zum Vergleich wurde Brillantblau R (BBR) anstelle von BBG eingesetzt. Die Ergebnisse sind in den Tabellen 1-4 wiedergegeben. Tabelle 1: Einfluss von BBG und BBR auf die bakteriostatische Wirkung von BAK gegenüber Escherichia coli (E. coli), + = Bakterienwachstum nach 24 h Inkubation, - = kein Bakterienwachstum nach 24 h Inkubation, R = Brillantblau R (BBR), G = Brillantblau G (BBG).
Tabelle 2: Einfluss von BBG und BBR auf die bakteriostatische Wirkung von BAK gegenüber Bacillus sp., + = Bakterienwachstum nach 24 h Inkubation, - = kein Bakterienwachstum nach 24 h Inkubation, R = Brillantblau R (BBR), G = Brillantblau G (BBG).

[2] = test system: Escherichia coli DH5α; assay: Bacteriostatic effect of Octenidin with BBG: turbidity after 24 h incubation; assay type: cell-based; parameters: key: +: Bakterienwachstum nach 24 h Inkubation; -: kein Bakterienwachstum nach 24 h Inkubation
Method: as §1
(§2) Gram-negative Bakterien (hier E. coli) sind widerstandsfähiger als Gram-positive Bakterien (hier Bacillus sp.) und wachsen konzentrationsabhängig. […] Tabelle 3: Einfluss von BBG auf die bakteriostatische Wirkung von Octenidin (Oct) gegenüber Gram-negativen Bakterien., + = Bakterienwachstum nach 24 h Inkubation, - = kein Bakterienwachstum nach 24 h Inkubation, BBG = Brillantblau G.

[3] = test system: Vibrio sp. Gal12; assay: as above; assay type: cell-based; parameters: key: +: Bakterienwachstum nach 24 h Inkubation; -: kein Bakterienwachstum nach 24 h Inkubation
Method: as §1, §2

[4] = target: T1, P2X7-Rezeptor (Rattus norvegicus, UniProt Q64663); conditions: Jiang et al. 2000; cited from earlier work
T1 sequence (Q64663 1-595): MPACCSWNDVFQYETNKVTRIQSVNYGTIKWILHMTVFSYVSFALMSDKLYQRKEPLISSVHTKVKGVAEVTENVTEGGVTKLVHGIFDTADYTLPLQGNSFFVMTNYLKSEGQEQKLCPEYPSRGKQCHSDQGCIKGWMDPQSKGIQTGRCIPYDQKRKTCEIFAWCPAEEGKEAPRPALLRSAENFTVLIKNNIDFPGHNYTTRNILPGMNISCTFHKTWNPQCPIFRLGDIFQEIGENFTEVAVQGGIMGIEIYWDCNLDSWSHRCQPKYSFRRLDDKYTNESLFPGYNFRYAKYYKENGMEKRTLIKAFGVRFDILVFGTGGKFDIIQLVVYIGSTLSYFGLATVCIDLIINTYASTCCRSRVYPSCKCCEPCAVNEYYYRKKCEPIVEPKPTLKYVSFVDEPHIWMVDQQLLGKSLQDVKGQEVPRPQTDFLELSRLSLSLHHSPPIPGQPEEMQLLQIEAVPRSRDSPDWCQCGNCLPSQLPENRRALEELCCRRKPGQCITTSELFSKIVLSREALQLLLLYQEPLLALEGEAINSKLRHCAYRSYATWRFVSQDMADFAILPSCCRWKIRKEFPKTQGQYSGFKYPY

[5] = test system: Bacillus megaterium; assay: Bacteriostatic effect of Octenidin with BBG: turbidity after 24 h incubation; assay type: cell-based; parameters: key: +: Bakterienwachstum nach 24 h Inkubation; -: kein Bakterienwachstum nach 24 h Inkubation
Method: as §1
(§3) Tabelle 4: Einfluss von BBG auf die bakteriostatische Wirkung von Octenidin (Oct) gegenüber Gram-positiven Bakterien., + = Bakterienwachstum nach 24 h Inkubation, - = kein Bakterienwachstum nach 24 h Inkubation, +/- = geringes Wachstum nach 24 h Inkubation, BBG = Brillantblau G.

[6] = test system: Bacillus megaterium; assay: as above; assay type: cell-based; parameters: key: +: Bakterienwachstum nach 24 h Inkubation; -: kein Bakterienwachstum nach 24 h Inkubation; +/-: geringes Wachstum nach 24 h Inkubation
Method: as §1, §3

CCOc1ccc(Nc2ccc(C(=C3C=CC(=[N+](CC)Cc4cccc(S(=O)(=O)[O-])c4)C=C3C)c3ccc(N(CC)Cc4cccc(S(=O)(=O)O)c4)cc3C)cc2)cc1 [BBG, Brillantblau G]
Bakterienwachstum nach 24 h Inkubation ([1]; 0.007% G + BAK 0.001%): - | Bakterienwachstum nach 24 h Inkubation ([1]; 0.007% G + BAK 0.01%): - | Bakterienwachstum nach 24 h Inkubation ([1]; 0.030% G, Kein BAK): + | Einfluss auf das Bakterienwachstum ([1]; dye alone, no BAK (rechte Spalte, Tabelle 2)): beeinflussen das Bakterienwachstum nicht | Bakterienwachstum nach 24 h Inkubation ([2]; 0,007% BBG + Octenidin 0,01%): - | Bakterienwachstum nach 24 h Inkubation ([2]; 0,007% BBG + Octenidin 0,002%): + | Bakterienwachstum nach 24 h Inkubation ([2]; 0,007% BBG + Octenidin 0,003%): - | Bakterienwachstum nach 24 h Inkubation ([2]; 0,007% BBG + Octenidin 0,005%): - | Bakterienwachstum nach 24 h Inkubation ([2]; 0,007% BBG + Octenidin 0,007%): - | Bakterienwachstum nach 24 h Inkubation ([2]; 0,007% BBG + Octenidin 0,009%): - | Bakterienwachstum nach 24 h Inkubation ([2]; 0,007% BBG, Octenidin 0%): + | Bakterienwachstum nach 24 h Inkubation ([2]; 0,015% BBG + Octenidin 0,01%): - | Bakterienwachstum nach 24 h Inkubation ([2]; 0,015% BBG + Octenidin 0,002%): + | Bakterienwachstum nach 24 h Inkubation ([2]; 0,015% BBG + Octenidin 0,003%): + | Bakterienwachstum nach 24 h Inkubation ([2]; 0,015% BBG + Octenidin 0,005%): + | Bakterienwachstum nach 24 h Inkubation ([2]; 0,015% BBG + Octenidin 0,007%): - | Bakterienwachstum nach 24 h Inkubation ([2]; 0,015% BBG + Octenidin 0,009%): - | Bakterienwachstum nach 24 h Inkubation ([2]; 0,015% BBG, Octenidin 0%): + | Bakterienwachstum nach 24 h Inkubation ([2]; 0,030% BBG + Octenidin 0,01%): + | Bakterienwachstum nach 24 h Inkubation ([2]; 0,030% BBG + Octenidin 0,002%): + | Bakterienwachstum nach 24 h Inkubation ([2]; 0,030% BBG + Octenidin 0,003%): + | Bakterienwachstum nach 24 h Inkubation ([2]; 0,030% BBG + Octenidin 0,005%): + | Bakterienwachstum nach 24 h Inkubation ([2]; 0,030% BBG + Octenidin 0,007%): + | Bakterienwachstum nach 24 h Inkubation ([2]; 0,030% BBG + Octenidin 0,009%): + | Bakterienwachstum nach 24 h Inkubation ([2]; 0,030% BBG, Octenidin 0%): + | Bakterienwachstum nach 24 h Inkubation ([3]; 0,007% BBG + Octenidin 0,01%): - | Bakterienwachstum nach 24 h Inkubation ([3]; 0,007% BBG + Octenidin 0,002%): + | Bakterienwachstum nach 24 h Inkubation ([3]; 0,007% BBG + Octenidin 0,003%): - | Bakterienwachstum nach 24 h Inkubation ([3]; 0,007% BBG + Octenidin 0,005%): - | Bakterienwachstum nach 24 h Inkubation ([3]; 0,007% BBG + Octenidin 0,007%): - | Bakterienwachstum nach 24 h Inkubation ([3]; 0,007% BBG + Octenidin 0,009%): - | Bakterienwachstum nach 24 h Inkubation ([3]; 0,007% BBG, Octenidin 0%): + | Bakterienwachstum nach 24 h Inkubation ([3]; 0,015% BBG + Octenidin 0,01%): - | Bakterienwachstum nach 24 h Inkubation ([3]; 0,015% BBG + Octenidin 0,002%): + | Bakterienwachstum nach 24 h Inkubation ([3]; 0,015% BBG + Octenidin 0,003%): + | Bakterienwachstum nach 24 h Inkubation ([3]; 0,015% BBG + Octenidin 0,005%): + | Bakterienwachstum nach 24 h Inkubation ([3]; 0,015% BBG + Octenidin 0,007%): - | Bakterienwachstum nach 24 h Inkubation ([3]; 0,015% BBG + Octenidin 0,009%): - | Bakterienwachstum nach 24 h Inkubation ([3]; 0,015% BBG, Octenidin 0%): + | Bakterienwachstum nach 24 h Inkubation ([3]; 0,030% BBG + Octenidin 0,01%): + | Bakterienwachstum nach 24 h Inkubation ([3]; 0,030% BBG + Octenidin 0,002%): + | Bakterienwachstum nach 24 h Inkubation ([3]; 0,030% BBG + Octenidin 0,003%): + | Bakterienwachstum nach 24 h Inkubation ([3]; 0,030% BBG + Octenidin 0,005%): + | Bakterienwachstum nach 24 h Inkubation ([3]; 0,030% BBG + Octenidin 0,007%): + | Bakterienwachstum nach 24 h Inkubation ([3]; 0,030% BBG + Octenidin 0,009%): + | Bakterienwachstum nach 24 h Inkubation ([3]; 0,030% BBG, Octenidin 0%): + | Hemmung des P2X7-Rezeptors [4]: spezifisch nicht-kompetitiv hemmt | Bakterienwachstum nach 24 h Inkubation ([5]; 0,007% BBG + Octenidin 0,01%): - | Bakterienwachstum nach 24 h Inkubation ([5]; 0,007% BBG + Octenidin 0,002%): - | Bakterienwachstum nach 24 h Inkubation ([5]; 0,007% BBG + Octenidin 0,003%): - | Bakterienwachstum nach 24 h Inkubation ([5]; 0,007% BBG + Octenidin 0,005%): - | Bakterienwachstum nach 24 h Inkubation ([5]; 0,007% BBG + Octenidin 0,007%): - | Bakterienwachstum nach 24 h Inkubation ([5]; 0,007% BBG + Octenidin 0,009%): - | Bakterienwachstum nach 24 h Inkubation ([5]; 0,007% BBG, Octenidin 0%): + | Bakterienwachstum nach 24 h Inkubation ([5]; 0,015% BBG + Octenidin 0,01%): - | Bakterienwachstum nach 24 h Inkubation ([5]; 0,015% BBG + Octenidin 0,002%): + | Bakterienwachstum nach 24 h Inkubation ([5]; 0,015% BBG + Octenidin 0,005%): - | Bakterienwachstum nach 24 h Inkubation ([5]; 0,015% BBG + Octenidin 0,007%): - | Bakterienwachstum nach 24 h Inkubation ([5]; 0,015% BBG + Octenidin 0,009%): - | Bakterienwachstum nach 24 h Inkubation ([5]; 0,015% BBG, Octenidin 0%): + | Bakterienwachstum nach 24 h Inkubation ([5]; 0,030% BBG + Octenidin 0,01%): - | Bakterienwachstum nach 24 h Inkubation ([5]; 0,030% BBG + Octenidin 0,002%): + | Bakterienwachstum nach 24 h Inkubation ([5]; 0,030% BBG + Octenidin 0,003%): + | Bakterienwachstum nach 24 h Inkubation ([5]; 0,030% BBG + Octenidin 0,009%): - | Bakterienwachstum nach 24 h Inkubation ([5]; 0,030% BBG, Octenidin 0%): + | Bakterienwachstum nach 24 h Inkubation ([6]; 0,015% BBG + Octenidin 0,003%): +/- | Bakterienwachstum nach 24 h Inkubation ([6]; 0,030% BBG + Octenidin 0,005%): +/- | Bakterienwachstum nach 24 h Inkubation ([6]; 0,030% BBG + Octenidin 0,007%): +/-
